Assay type in all cases: cell-based
In one assay the target is T1, Human Nav1.9 (Homo sapiens, UniProt Q9UI33).
T1 construct: expressed in transfected cells; host or cells: HEK-293 stably expressing human β1/β2
In words: PatchXpress whole-cell voltage clamp, inhibition of human Nav1.9 (+β1/β2) currents in HEK-293 cells. Also on record: key to Activity on human Nav1.9 at single concentration: NA = not active. As to conditions: for Increase in potency at the most depolarized membrane potential: -90 mV vs -140 mV (resting to half-inactivated channels).

Assay [1] deals with T2, Human Nav1.9 F1592A/Y1599A (Homo sapiens, UniProt Q9UI33, F1592A/Y1599A).
T2 construct: expressed in transfected cells; host or cells: HEK-293-β1/β2
T2 sequence (Q9UI33 whole entry F1592A/Y1599A): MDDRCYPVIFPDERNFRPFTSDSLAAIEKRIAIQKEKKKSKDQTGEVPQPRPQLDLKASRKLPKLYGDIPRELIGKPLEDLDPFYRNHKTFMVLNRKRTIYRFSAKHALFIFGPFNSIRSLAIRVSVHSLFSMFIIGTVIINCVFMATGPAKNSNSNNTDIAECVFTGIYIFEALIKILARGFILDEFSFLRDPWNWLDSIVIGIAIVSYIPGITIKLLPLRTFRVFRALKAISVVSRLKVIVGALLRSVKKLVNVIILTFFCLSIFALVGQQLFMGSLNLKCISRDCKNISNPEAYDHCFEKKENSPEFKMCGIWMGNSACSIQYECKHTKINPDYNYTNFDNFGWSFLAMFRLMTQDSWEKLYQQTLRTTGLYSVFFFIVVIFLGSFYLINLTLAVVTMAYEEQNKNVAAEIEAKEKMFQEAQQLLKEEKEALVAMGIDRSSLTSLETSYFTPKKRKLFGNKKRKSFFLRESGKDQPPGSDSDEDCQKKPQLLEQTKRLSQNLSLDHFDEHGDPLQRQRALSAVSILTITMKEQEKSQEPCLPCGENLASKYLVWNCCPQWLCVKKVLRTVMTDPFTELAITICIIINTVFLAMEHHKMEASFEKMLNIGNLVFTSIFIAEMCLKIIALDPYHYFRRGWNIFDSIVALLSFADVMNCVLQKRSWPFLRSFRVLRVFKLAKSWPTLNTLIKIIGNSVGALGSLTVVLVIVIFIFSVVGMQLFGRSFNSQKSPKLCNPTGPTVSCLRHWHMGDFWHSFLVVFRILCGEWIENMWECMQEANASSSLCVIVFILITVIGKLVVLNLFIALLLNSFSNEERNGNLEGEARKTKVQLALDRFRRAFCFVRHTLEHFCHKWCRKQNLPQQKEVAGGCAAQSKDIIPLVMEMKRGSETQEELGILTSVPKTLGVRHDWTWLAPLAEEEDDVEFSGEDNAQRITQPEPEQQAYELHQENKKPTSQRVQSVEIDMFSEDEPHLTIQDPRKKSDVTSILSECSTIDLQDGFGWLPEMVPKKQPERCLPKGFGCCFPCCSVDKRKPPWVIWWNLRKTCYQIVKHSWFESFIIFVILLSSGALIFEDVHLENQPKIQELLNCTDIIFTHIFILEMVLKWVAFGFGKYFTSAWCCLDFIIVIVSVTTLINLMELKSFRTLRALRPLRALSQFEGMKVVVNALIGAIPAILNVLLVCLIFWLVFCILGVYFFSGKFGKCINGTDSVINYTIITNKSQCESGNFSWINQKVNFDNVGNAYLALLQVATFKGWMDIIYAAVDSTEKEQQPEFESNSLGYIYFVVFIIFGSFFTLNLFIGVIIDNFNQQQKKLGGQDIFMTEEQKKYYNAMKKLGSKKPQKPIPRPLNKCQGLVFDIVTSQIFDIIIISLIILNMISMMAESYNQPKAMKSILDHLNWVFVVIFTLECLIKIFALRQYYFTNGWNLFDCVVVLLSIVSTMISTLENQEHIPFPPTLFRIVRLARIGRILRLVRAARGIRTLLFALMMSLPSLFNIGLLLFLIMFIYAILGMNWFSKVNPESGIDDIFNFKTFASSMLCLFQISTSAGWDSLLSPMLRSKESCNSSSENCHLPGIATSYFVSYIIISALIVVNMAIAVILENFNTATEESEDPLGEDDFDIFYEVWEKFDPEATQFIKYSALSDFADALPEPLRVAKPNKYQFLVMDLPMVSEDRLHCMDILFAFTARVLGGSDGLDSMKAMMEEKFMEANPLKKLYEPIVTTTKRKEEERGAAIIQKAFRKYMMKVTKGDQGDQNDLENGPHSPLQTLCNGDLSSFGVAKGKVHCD
T2 sequence (Q07699 19-218 partner): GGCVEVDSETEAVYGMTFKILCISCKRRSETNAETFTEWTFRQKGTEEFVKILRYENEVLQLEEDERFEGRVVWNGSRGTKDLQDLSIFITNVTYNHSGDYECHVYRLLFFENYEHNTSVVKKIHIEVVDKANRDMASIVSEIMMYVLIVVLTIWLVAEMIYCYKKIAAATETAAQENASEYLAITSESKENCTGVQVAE
In words: PatchXpress whole-cell voltage clamp, inhibition of the human Nav1.9 F1592A/Y1599A local anesthetic site mutant in HEK-293 cells. As to conditions: for IC50: read-out: IC50 for inhibition of human Nav1.9 F1592A/Y1599A (LAM).

In the next assay the target is T3, Human Nav1.7 (Homo sapiens, UniProt Q15858).
T3 construct: expressed in transfected cells; host or cells: HEK-293-β1/β2
T3 sequence (Q15858 1-1977 isoform Q15858-3): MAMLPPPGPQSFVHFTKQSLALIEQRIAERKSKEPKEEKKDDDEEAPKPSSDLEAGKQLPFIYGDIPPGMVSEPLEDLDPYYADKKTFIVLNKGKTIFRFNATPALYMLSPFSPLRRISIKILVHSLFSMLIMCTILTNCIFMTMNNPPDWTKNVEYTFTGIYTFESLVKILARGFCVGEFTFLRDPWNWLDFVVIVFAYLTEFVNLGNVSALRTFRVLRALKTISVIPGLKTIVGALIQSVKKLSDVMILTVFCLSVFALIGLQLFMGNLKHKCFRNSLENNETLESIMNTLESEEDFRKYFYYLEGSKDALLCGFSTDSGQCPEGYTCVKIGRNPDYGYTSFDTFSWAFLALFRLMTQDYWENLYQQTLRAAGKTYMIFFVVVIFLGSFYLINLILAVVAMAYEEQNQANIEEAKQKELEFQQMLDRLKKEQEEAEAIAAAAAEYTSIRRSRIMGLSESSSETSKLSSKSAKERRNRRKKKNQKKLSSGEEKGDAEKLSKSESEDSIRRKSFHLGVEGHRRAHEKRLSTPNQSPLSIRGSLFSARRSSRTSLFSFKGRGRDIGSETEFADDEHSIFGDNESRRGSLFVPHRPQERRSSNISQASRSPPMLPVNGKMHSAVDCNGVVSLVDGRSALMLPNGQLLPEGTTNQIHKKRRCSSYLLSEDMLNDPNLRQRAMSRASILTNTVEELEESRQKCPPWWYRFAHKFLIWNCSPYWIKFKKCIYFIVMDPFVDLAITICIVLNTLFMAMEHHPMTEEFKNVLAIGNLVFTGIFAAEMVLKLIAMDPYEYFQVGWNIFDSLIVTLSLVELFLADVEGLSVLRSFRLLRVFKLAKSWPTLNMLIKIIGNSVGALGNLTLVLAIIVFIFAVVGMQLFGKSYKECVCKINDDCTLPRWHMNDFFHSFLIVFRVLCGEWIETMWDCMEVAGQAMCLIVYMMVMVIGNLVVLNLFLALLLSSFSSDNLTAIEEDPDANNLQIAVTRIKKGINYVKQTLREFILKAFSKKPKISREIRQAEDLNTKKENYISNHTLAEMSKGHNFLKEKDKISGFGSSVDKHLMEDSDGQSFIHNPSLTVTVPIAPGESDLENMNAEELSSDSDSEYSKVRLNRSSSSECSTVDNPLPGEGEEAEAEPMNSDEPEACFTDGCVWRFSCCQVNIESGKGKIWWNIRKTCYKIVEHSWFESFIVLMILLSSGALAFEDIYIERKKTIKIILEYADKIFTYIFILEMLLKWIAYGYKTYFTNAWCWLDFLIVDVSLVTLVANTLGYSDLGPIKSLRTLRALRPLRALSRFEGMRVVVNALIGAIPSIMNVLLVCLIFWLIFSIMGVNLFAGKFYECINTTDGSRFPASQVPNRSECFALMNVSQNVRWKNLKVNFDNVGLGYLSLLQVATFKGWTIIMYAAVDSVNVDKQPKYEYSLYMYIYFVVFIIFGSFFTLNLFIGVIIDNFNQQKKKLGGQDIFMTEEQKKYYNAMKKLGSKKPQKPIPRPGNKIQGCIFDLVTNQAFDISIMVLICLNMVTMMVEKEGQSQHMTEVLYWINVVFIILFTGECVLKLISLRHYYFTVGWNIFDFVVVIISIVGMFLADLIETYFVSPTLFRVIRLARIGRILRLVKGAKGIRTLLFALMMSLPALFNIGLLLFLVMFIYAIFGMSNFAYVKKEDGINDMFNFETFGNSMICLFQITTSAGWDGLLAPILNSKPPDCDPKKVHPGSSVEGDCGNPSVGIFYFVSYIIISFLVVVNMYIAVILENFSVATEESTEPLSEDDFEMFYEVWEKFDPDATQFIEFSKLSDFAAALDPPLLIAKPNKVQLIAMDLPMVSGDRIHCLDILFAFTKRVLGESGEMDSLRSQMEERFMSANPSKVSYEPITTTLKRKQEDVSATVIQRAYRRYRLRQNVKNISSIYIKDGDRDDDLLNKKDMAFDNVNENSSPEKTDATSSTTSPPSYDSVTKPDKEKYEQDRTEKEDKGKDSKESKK
T3 sequence (Q07699 19-218 partner): as the sequence (Q07699 19-218 partner) above
T3 sequence (O60939 30-215 partner): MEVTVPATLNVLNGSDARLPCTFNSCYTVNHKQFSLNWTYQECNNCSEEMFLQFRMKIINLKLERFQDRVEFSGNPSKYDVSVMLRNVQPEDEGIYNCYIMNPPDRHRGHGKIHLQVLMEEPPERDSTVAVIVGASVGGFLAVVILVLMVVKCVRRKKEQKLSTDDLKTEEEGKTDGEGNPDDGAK
Nature of the assay: PatchXpress whole-cell voltage clamp, inhibition of human Nav1.7 in HEK-293 cells.

In the next assay the target is T4, Nav1.9 K799N (Homo sapiens, UniProt Q9UI33, K799N).
T4 construct: expressed in transfected cells; host or cells: HEK-293-β1/β2
T4 sequence (Q9UI33 whole entry K799N): as the sequence (Q9UI33 whole entry F1592A/Y1599A) above, with K799N, A1592F, A1599Y counted along it
T4 sequence (Q07699 19-218 partner): as the sequence (Q07699 19-218 partner) above
Nature of the assay: PatchXpress whole-cell voltage clamp, inhibition of the human Nav1.9 K799N mutant in HEK-293 cells. To be noted: for IC50: protocol of Fig 2.

The next assay addresses T5, Nav1.7 N945K (Homo sapiens, UniProt Q15858, N956K).
T5 construct: expressed in transfected cells; host or cells: HEK-293-β1/β2
In words: PatchXpress whole-cell voltage clamp, inhibition of the human Nav1.7 N945K mutant in HEK-293 cells.

The next assay deals with Human Nav1.8 (Homo sapiens, UniProt Q9Y5Y9). Nature of the assay: Whole-cell voltage clamp, inhibition of human Nav1.8. As to conditions: ~50% inactivated.
A further assay deals with T6, Rat Nav1.9 (Rattus norvegicus, UniProt O88457).
T6 construct: expressed in transfected cells; host or cells: HEK-293-rat β1/β2
In words: PatchXpress whole-cell voltage clamp, inhibition of rat Nav1.9 (+rat β1/β2) in HEK-293 cells.

Another assay deals with T7, Mouse Nav1.9 (Mus musculus, UniProt Q9R053).
T7 construct: expressed in transfected cells; host or cells: HEK-293-mouse β1/β2
In words: PatchXpress whole-cell voltage clamp, inhibition of mouse Nav1.9 (+mouse β1/β2) in HEK-293 cells.

[2] abbreviates: holding potential -120 mV (~25% inactivation), 40 ms step to -40 mV every 20 s, HEK-293 + β1/β2, 500 μM GTP-γ-S in pipette, read-out: IC50 for inhibition of human Nav1.9.
[3] abbreviates: Nav1.9 F1592A/Y1599A vs Nav1.9 WT.

The values below come from PMC4996523, “Biophysical and Pharmacological Characterization of Nav1.9 Voltage Dependent Sodium Channels Stably Expressed in HEK-293 Cells” (PLoS ONE, 2016).

Several values for one entry are separate records, joined by “and”; a condition that tells them apart may be missing. Equal entries are not always repeated. Entries after “also recorded” stand apart in the source; their conditions may differ. Where two headings read alike, the source gives them in different places.

T1 sequence (Q9UI33 whole entry): as the sequence (Q9UI33 whole entry F1592A/Y1599A) above, with A1592F, A1599Y counted along it
T1 sequence (Q07699 19-218 partner): as the sequence (Q07699 19-218 partner) above
T5 sequence (Q15858 1-1977 isoform Q15858-3 N945K): as the sequence (Q15858 1-1977 isoform Q15858-3) above, with N945K counted along it
T5 sequence (Q07699 19-218 partner): as the sequence (Q07699 19-218 partner) above
T5 sequence (O60939 30-215 partner): as the sequence (O60939 30-215 partner) above

Consider `COc1cc(NC(=O)c2ccc(-c3ccc(Cl)cc3)o2)cc(OC)c1` [A-803467], for which the “Inhibition of human Nav1.9 at single concentration” value on Human Nav1.9 (10 μM) was determined as 30% @ 10 μM.

Consider `CN(C)CCC=C1c2ccccc2CCc2ccccc21` [Amitriptyline], for which the IC50 amounted to 29 µM on Human Nav1.9 (setting [2]) and 105 µM in assay [1] (same protocol as Nav1.9 WT).

For `CCOC(=O)c1ccc(N)cc1` [Benzocaine], the IC50 at Human Nav1.9 (setting [2]) turned out to be 351 µM; on Human Nav1.9 (in figure, holding potential -120 mV, read-out: IC50 for inhibition of human Nav1.9 WT), 400 µM; in assay [1] (in figure), 1800 µM; in assay [1] (same protocol as Nav1.9 WT), 1760 µM; on Human Nav1.7 (in figure, read-out: IC50 for inhibition of Nav1.7 WT), 130 µM; at Human Nav1.7 (wild type, ~50% inactivated, read-out: IC50 for inhibition of human Nav1.7) it was 133 µM. The IC50 against Nav1.9 K799N (in figure) is 300 µM; against Nav1.7 N945K (in figure) it was 180 µM. Further, in assay [1] (setting [3]), the “Effect of the F1592A/Y1599A mutation on Nav1.9 inhibition” value (from here on “Effect … on Nav1.9 inhibition”) is listed as “reduced”. In addition, the “Reduction in potency by the F1592A/Y1599A mutation” value in assay [1] (setting [3]) is recorded as 5 fold. The “Effect of the K799N mutation on potency” value on Nav1.9 K799N (Nav1.9 K799N vs Nav1.9 WT) was “unaffected”. In addition, on Nav1.7 N945K (Nav1.7 N945K vs Nav1.7 WT), the “Effect of the N945K mutation on sensitivity” value was “no shift; also recorded: unchanged”.

Turning to `CCCCN1CCCCC1C(=O)Nc1c(C)cccc1C` (centres unmarked) [Bupivacaine], at Human Nav1.9 (setting [2]), the IC50 was determined as 186 µM.

Take `[Cl][Cd][Cl]` [CdCl2]: the “Activity on human Nav1.9 at single concentration” value (“Activity” for short) on Human Nav1.9 (100 μM) is “NA @ 100 μM”.

Regarding `O=C(NCC1CCCCN1)c1cc(OCC(F)(F)F)ccc1OCC(F)(F)F` (centres unmarked) [Flecainide], at Human Nav1.9 (setting [2]), the IC50 was determined as 244 µM.

For `O=C(Nc1ccc(S(=O)(=O)Nc2nccs2)cc1)C(c1ccccc1)c1ccccc1` [ICA-121431], the “Activity” value at Human Nav1.9 (10 μM) is given as “NA @ 10 μM”.

Turning to `Nc1nnc(-c2cccc(Cl)c2Cl)c(N)n1` [Lamotrigine], the IC50 at Human Nav1.9 (setting [2]) was determined as 199 µM.

For `CCN(CC)CC(=O)Nc1c(C)cccc1C` [Lidocaine], the results for the IC50 (at Human Nav1.9 (setting [2]); in assay [1] (same protocol as Nav1.9 WT)) were 356 µM and 5550 µM, respectively. Also, the “Effect … on Nav1.9 inhibition” value in assay [1] is “reduced”.

On to `Cc1cccc(C)c1OCC(C)N` (centres unmarked) [Mexiletine], for which the IC50 came to 270 µM on Human Nav1.9 (setting [2]), 837 µM in assay [1] (same protocol as Nav1.9 WT) and 18 µM against Human Nav1.8. Also, in assay [1] (setting [3]), the “Effect … on Nav1.9 inhibition” value was “reduced”.

For the compound `COCC(=O)O[C@]1(CCN(C)CCCc2nc3ccccc3[nH]2)CCc2cc(F)ccc2[C@@H]1C(C)C` [Mibefradil], the “Activity” value at Human Nav1.9 (10 μM) is on record as “NA @ 10 μM”.

For the compound `COCCOC(=O)C1=C(C)NC(C)=C(C(=O)OC(C)C)C1c1cccc([N+](=O)[O-])c1` (centres unmarked) [Nimodipine], the IC50 at Human Nav1.9 (setting [2]) was found to be 33 µM.

For the compound `CC(=O)Nc1cccc(Nc2ncnc(N3CCC(OCc4ccc(OC(F)(F)F)cc4)CC3)n2)c1C` [TC-N 1752], the “Effect … on Nav1.9 inhibition” value in assay [1] (setting [3]) is given as “essentially abolished”. In addition, the “Decrease in potency by the K799N mutation” value on Nav1.9 K799N (Nav1.9 K799N vs Nav1.9 WT) was 5.6 fold and ~ 6 fold.

On to `NC1=N[C@H](O)[C@H]2[C@H]3O[C@]4(O)O[C@@H]([C@@H](O)[C@@]2(N1)[C@@H]4O)[C@]3(O)CO` [TTX, tetrodotoxin], for which, at Human Nav1.9, the “Activity” value is “NA @ 10 μM” and the “Sensitivity of peak inward Nav1.9 current to inhibition” value is on record as “insensitive”.

Turning to `CCCCNc1ccc(C(=O)OCCN(C)C)cc1` [Tetracaine], the “Increase in potency at the most depolarized membrane potential” value is recorded as roughly 3 fold on Human Nav1.9 and “no more than 3 fold” on Human Nav1.9 (listed as tetracaine). Also, the IC50 was 17 µM on Human Nav1.9 (holding potential -90 mV, read-out: IC50 for inhibition of Nav1.9 at holding potential -90 mV); 22 µM on Human Nav1.9 (holding potential -100 mV, read-out: IC50 for inhibition of Nav1.9 at holding potential -100 mV); 31.7 µM and 32 µM on Human Nav1.9 (setting [2]); 31 µM on Human Nav1.9 (holding potential -120 mV, Fig 2B holding potential series, read-out: IC50 for inhibition of Nav1.9 at holding potential -120 mV); 54 µM on Human Nav1.9 (holding potential -140 mV, read-out: IC50 for inhibition of Nav1.9 at holding potential -140 mV); 177 µM in assay [1] (same protocol as Nav1.9 WT). The IC50 against Human Nav1.8 is 0.3 µM; against Rat Nav1.9, 7.6 µM; on Mouse Nav1.9, 12 µM; on Nav1.9 K799N, 10.3 µM and 10 µM. For the same compound, at Nav1.9 K799N (Nav1.9 K799N vs Nav1.9 WT), the “Increase in potency by the K799N mutation” value is recorded as 3 fold. Further, the “Decrease in sensitivity by the N945K mutation” value on Nav1.7 N945K (Nav1.7 N945K vs Nav1.7 WT) turned out to be 3 fold.
